Assay results: ChEMBL document CHEMBL3875146, “Mycobacterium Tuberculosis (MTB) GyrB inhibitors: An attractive approach for developing novel drugs against TB” (Eur J Med Chem, 2016)
In brackets after ≈: the same amount, converted by molar mass.

Assays:
[1] = biological target: DNA gyrase subunit A/DNA gyrase subunit B (Mycobacterium tuberculosis (strain ATCC 25618 / H37Rv)) (UniProt P9WG45+P9WG47); experiment: (§1) Inhibition of Mycobacterium tuberculosis DNA gyrase assessed as inhibition of DNA supercoiling activity using relaxed pBR322 as substrate incubated for 30 mins by ethidium bromide staining based agarose gel electrophoresis
[2] = biological target: T1, DNA gyrase subunit A/DNA gyrase subunit B (Mycobacterium tuberculosis (strain ATCC 25618 / H37Rv), UniProt P9WG45+P9WG47); experiment: Inhibition of Mycobacterium tuberculosis DNA gyrase assessed as inhibition of DNA supercoiling activity using relaxed pBR322 as substrate incubated for 30 mins in presence of ATP by ethidium bromide staining based agarose gel electrophoresis
T1 sequence (P9WG45 whole entry): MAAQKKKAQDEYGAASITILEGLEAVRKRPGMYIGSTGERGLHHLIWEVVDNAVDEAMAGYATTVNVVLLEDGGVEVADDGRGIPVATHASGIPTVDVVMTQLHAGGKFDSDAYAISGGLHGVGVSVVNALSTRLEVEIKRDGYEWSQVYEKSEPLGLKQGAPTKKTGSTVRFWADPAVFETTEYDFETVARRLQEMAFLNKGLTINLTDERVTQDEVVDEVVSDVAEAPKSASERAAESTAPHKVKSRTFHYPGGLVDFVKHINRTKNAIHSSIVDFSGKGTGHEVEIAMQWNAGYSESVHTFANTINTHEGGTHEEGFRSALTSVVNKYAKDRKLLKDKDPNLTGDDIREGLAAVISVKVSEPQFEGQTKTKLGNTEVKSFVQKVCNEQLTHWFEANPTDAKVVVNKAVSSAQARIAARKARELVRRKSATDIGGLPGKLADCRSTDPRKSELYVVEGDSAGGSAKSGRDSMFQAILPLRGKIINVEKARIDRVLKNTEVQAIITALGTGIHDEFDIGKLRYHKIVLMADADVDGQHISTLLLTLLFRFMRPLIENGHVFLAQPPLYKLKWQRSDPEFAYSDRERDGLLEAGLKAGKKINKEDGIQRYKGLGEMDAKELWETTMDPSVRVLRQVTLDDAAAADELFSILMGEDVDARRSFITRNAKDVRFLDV
T1 sequence (P9WG47 whole entry): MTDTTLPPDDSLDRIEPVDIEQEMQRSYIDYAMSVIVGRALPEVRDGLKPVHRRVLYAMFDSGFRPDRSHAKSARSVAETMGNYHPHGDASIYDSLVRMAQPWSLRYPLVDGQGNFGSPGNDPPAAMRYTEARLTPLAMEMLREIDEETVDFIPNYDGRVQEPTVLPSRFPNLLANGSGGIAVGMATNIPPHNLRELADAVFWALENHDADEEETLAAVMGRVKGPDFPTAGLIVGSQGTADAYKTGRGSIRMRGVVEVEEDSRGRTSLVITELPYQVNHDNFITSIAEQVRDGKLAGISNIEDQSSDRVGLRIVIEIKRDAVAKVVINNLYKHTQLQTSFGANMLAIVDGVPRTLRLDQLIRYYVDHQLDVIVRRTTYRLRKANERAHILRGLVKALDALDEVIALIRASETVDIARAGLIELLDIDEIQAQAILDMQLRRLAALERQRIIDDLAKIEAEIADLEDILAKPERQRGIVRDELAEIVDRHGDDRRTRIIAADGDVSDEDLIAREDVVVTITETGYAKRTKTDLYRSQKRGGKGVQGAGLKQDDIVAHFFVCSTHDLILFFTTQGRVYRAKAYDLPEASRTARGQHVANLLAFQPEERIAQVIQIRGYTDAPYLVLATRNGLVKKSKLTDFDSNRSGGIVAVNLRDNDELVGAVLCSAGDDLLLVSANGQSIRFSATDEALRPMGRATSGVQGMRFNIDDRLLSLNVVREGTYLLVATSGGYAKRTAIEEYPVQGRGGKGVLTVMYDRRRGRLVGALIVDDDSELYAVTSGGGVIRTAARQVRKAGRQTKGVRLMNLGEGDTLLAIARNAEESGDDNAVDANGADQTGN

[3] = tested on: Mycobacterium tuberculosis; experiment: Antimycobacterial activity against Mycobacterium tuberculosis; assay type: functional
[4] = biological target: DNA gyrase subunit B (Mycobacterium smegmatis) (UniProt P0C559); experiment: Inhibition of Mycobacterium smegmatis DNA gyrase-B ATPase activity after 30 mins by ammonium molybdate/malachite green-based phosphate detection assay; conditions: Mycolicibacterium smegmatis
Chain of DNA gyrase subunit B (Mycobacterium smegmatis) (P0C559 2-675 limits assumed): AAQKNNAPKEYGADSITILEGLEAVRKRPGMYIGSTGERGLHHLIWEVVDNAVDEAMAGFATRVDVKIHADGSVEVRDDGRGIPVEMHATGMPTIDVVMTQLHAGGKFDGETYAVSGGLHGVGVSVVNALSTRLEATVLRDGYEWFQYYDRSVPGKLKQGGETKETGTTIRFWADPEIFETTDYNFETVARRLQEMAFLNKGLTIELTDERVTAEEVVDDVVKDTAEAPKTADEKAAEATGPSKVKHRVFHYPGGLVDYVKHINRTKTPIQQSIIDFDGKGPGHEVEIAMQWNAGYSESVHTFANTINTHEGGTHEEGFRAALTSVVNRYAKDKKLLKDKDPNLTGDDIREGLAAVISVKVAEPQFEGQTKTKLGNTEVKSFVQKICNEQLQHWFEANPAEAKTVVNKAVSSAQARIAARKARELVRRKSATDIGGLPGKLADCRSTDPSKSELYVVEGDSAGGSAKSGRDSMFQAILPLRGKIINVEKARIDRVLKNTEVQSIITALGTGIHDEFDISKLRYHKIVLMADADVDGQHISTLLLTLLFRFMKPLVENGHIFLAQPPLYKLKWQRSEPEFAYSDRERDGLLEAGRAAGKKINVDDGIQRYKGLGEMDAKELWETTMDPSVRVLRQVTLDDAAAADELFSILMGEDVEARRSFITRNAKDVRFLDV

[5] = tested on: Mycobacterium tuberculosis; experiment: Antimycobacterial activity against Mycobacterium tuberculosis measured after 5 days by microplate alamar blue assay; assay type: functional; conditions: 120 h
[6] = tested on: Mycobacterium tuberculosis; experiment: Inhibition of Mycobacterium tuberculosis topoisomerase-1 using DNA as substrate preincubated for 15 mins followed by substrate addition measured after 30 mins by ethidium-bromide based agarose gel electrophoresis
[7] = biological target: T1, DNA gyrase subunit A/DNA gyrase subunit B; experiment: as §1
[8] = Cytotoxicity against mouse RAW264.7 cells assessed as inhibition of cell viability at 100 uM measured after 72 hrs by MTT assay relative to control; assay type: toxicity; conditions: read-out: INH
DNA gyrase subunit B = DNA gyrase subunit B (Mycobacterium smegmatis, UniProt P0C559); experiment: Inhibition of Mycobacterium smegmatis DNA gyrase B expressed in BL21(DE3)pLysS cells assessed as inhibition of […] activity in presence of ATP measured after 30 mins by malachite green dye based assay; assay type: cell-based, Mycolicibacterium smegmatis
Chain of DNA gyrase subunit B (P0C559 whole entry): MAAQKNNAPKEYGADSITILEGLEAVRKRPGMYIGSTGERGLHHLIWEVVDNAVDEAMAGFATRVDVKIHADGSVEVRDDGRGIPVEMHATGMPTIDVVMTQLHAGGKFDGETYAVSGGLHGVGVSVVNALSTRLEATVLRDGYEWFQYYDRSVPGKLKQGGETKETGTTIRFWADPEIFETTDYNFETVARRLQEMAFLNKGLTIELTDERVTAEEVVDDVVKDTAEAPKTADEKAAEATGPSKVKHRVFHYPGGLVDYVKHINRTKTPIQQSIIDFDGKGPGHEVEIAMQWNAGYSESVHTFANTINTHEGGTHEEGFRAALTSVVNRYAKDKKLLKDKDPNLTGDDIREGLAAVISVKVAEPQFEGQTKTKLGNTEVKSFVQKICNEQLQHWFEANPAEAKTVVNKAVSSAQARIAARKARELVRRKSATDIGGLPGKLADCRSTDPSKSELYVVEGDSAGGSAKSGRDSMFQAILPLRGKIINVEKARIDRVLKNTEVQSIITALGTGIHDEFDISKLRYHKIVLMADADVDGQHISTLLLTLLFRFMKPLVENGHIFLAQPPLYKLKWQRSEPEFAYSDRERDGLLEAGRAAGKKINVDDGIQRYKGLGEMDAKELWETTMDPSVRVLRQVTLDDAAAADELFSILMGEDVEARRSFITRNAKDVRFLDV

[9] = Inhibition of Escherichia coli DNA gyrase assessed as inhibition of DNA supercoiling activity using relaxed pBR322 as substrate incubated for 30 mins in presence of ATP by ethidium bromide staining based agarose gel electrophoresis
[10] = Inhibition of Staphylococcus aureus WCUH29 DNA gyrase expressed in Escherichia coli Rosetta 2 (DE3) pLysS cells assessed as inhibition of DNA supercoiling activity using relaxed pBR322 as substrate incubated for 30 mins in presence of ATP by ethidium bromide staining based agarose gel electrophoresis
Escherichia coli = experiment: Antimicrobial activity against Escherichia coli; assay type: functional

## Clc1ccc(/N=N/c2cnc3cc4ccccc4cc3n2)cc1
[1]
  INH: 12 µM

## Cc1cc2c(c(O)c1-c1c(C)cc(O)c3c1C(=O)C=CC3=O)C(=O)C=CC2=O
[2]
  IC50: 100 µM

## O=C1CSc2ccc(CNC3CCN(CC4CCN5C(=O)C=CC6N=CC(=O)N4C65)CC3)nc2N1 (centres undefined)
[3]
  MIC: 300 to 2000 µg/mL (≈ 605 to 4040 µM)

## Fc1ccc(/N=N/c2cnc3cc4ccccc4cc3n2)cc1
[1]
  INH: 50 µM

## CCNC(=O)Nc1nc2cc(-c3cncnc3)c(OCC3CCOCC3)nc2s1
[4]
  INH: 2.5 nM
[5]
  MIC: 60 µg/mL (≈ 145 µM)

## Cc1cc(O)c2c(c1)C(=O)C=C(c1c(C)cc(O)c3c1C(=O)C=CC3=O)C2=O [NEODIOSPYRIN]
[2]
  IC50: 50 µM

## Clc1cccc(-c2cnc3cc(-c4ccc5cn[nH]c5c4)cnc3n2)c1
[6]
  INH: 7.5 µM

## COc1ccc2ncc(=O)n(-c3cnc4c(c3)CCC(NCc3ccc5c(n3)NC(=O)CO5)C4)c2n1 (centres undefined)
[3]
  MIC: 300 to 2000 µg/mL (≈ 618 to 4120 µM)

## CC1=CC(=O)c2ccccc2C1=O [MENADIONE]
[2]
  IC50: > 200 µM

## Cc1ccc2c(c1)C(=O)C(=O)N2CCN1CCN(NCc2ccccc2F)CC1
[7]
  IC50: 50 µM
[8]
  cytotoxicity at 72 h, 100 µM: 27.6%
DNA gyrase subunit B
  IC50: 76 µM

## Cc1cc(O)c2c(c1)C(=O)C=CC2=O [RAMENTACEONE]
[9]
  IC50: 30 µM
[2]
  IC50: 30 µM
[10]
  IC50: 60 µM

## O=C1C(=O)N(CCN2CCN(NCc3ccc(Cl)cc3Cl)CC2)c2ccc(F)cc21
[7]
  IC50: 24.2 µM
[8]
  cytotoxicity at 72 h, 100 µM: 13.9%
DNA gyrase subunit B
  IC50: 43 µM

## O=C1C(=O)N(CCN2CCN(NCc3cccc(Cl)c3Cl)CC2)c2ccc(Cl)cc21
[7]
  IC50: 25.6 µM
[8]
  cytotoxicity at 72 h, 100 µM: 17.4%
DNA gyrase subunit B
  IC50: 43.2 µM

## O=C1C(=O)N(CCN2CCN(NCc3ccccc3C(F)(F)F)CC2)c2ccc(F)cc21
[7]
  IC50: 3.6 µM
[8]
  cytotoxicity at 72 h, 100 µM: 20.6%
DNA gyrase subunit B
  IC50: 10.6 µM

## O=C1COc2ccc(CNC3CCN(CC4CCc5c(F)ccc6ccc(=O)n4c56)CC3)nc2N1 (centres undefined)
[3]
  MIC: 300 to 2000 µg/mL (≈ 628 to 4190 µM)

## Cc1ccc2c(c1)C(=O)C(=O)N2CCN1CCN(NCc2ccccc2OCc2ccccc2)CC1
[7]
  IC50: 10 µM
[8]
  cytotoxicity at 72 h, 100 µM: 34.6%
DNA gyrase subunit B
  IC50: 28.3 µM

## O=C1COc2ccc(CNC3CCN(CCn4c(=O)ccc5cc(F)ccc54)CC3)nc2N1
[3]
  MIC: 300 to 2000 µg/mL (≈ 664 to 4430 µM)

## c1ccc(N2CCC(Cc3nc4cc5ccccc5cc4nc3CN3CCN(c4ccccn4)CC3)CC2)nc1
[6]
  INH: 7.5 µM

## O=C1C(=O)N(CCN2CCN(NCc3ccccc3F)CC2)c2ccccc21
[7]
  IC50: 43.6 µM
[8]
  cytotoxicity at 72 h, 100 µM: 10.3%
DNA gyrase subunit B
  IC50: 83 µM

## COc1ccc2c(c1)C(=O)C(=O)N2CCN1CCN(NCc2ccccc2OC)CC1
[7]
  IC50: 48.6 µM
[8]
  cytotoxicity at 72 h, 100 µM: 15.4%
DNA gyrase subunit B
  IC50: 81.2 µM

## Cc1ccc(-c2cnc3cc(-c4ccc5[nH]ccc5c4)cnc3n2)cc1
[6]
  INH: 0.1 µM

## COc1ccccc1CNN1CCN(CCN2C(=O)C(=O)c3cc(C)ccc32)CC1
[7]
  IC50: 5 µM
[8]
  cytotoxicity at 72 h, 100 µM: 9.42%
DNA gyrase subunit B
  IC50: 14.1 µM

## Cn1ccc2cc(-c3cnc4nc(-c5ccccc5)cnc4c3)ccc21
[6]
  INH: 0.1 µM

## O=C1C(=O)N(CCN2CCN(NCc3ccc([N+](=O)[O-])o3)CC2)c2ccc(Cl)cc21
[7]
  IC50: 23.9 µM
[8]
  cytotoxicity at 72 h, 100 µM: 34.2%
DNA gyrase subunit B
  IC50: 47.5 µM

## Brc1c2ccccc2c(Br)c2nc(-c3ccco3)c(-c3ccco3)nc12
[6]
  INH: 0.1 µM

## COc1ccc2c(c1)C(=O)C(=O)N2CCN1CCN(NCc2ccccc2OCc2ccccc2)CC1
[7]
  IC50: 36.5 µM
[8]
  cytotoxicity at 72 h, 100 µM: 16.3%
DNA gyrase subunit B
  IC50: 69.7 µM

## Cc1ccc2c(c1)C(=O)C(=O)N2CCN1CCN(NCc2cccc(Cl)c2Cl)CC1
[7]
  IC50: 43.1 µM
[8]
  cytotoxicity at 72 h, 100 µM: 27.8%
DNA gyrase subunit B
  IC50: 53.6 µM

## COc1ccc2c(c1)C(=O)C(=O)N2CCN1CCN(NCc2ccccc2)CC1
[7]
  IC50: 48.2 µM
[8]
  cytotoxicity at 72 h, 100 µM: 21.6%
DNA gyrase subunit B
  IC50: 92 µM

## Cc1cc(O)c2c(c1)C(=O)C(c1c(C)cc3c(c1O)C(=O)C=CC3=O)=CC2=O [DIOSPYRIN]
[9]
  IC50: 4 µM
[2]
  IC50: 15 µM
[10]
  IC50: 8 µM

## CCCCCCN1CCC(CCC(O)c2ccnc3ccc(OC)cc23)C(CC)C1 (centres undefined)
Escherichia coli
  MIC: 4000 µg/mL (≈ 9690 µM)

## O=C1C(=O)N(CCN2CCN(NCc3ccccc3OCc3ccccc3)CC2)c2ccccc21
[7]
  IC50: 10 µM
[8]
  cytotoxicity at 72 h, 100 µM: 13.9%
DNA gyrase subunit B
  IC50: 26.6 µM

## COc1ccc2c(c1)C(=O)C(=O)N2CCN1CCN(NCc2ccccc2C(F)(F)F)CC1
[7]
  IC50: 39.1 µM
[8]
  cytotoxicity at 72 h, 100 µM: 10.5%
DNA gyrase subunit B
  IC50: 61.5 µM

## Cc1cc(O)c2c(c1)C(O)CCC2=O (centres undefined)
[2]
  IC50: > 200 µM

## COc1ccccc1CNN1CCN(CCN2C(=O)C(=O)c3cc(Cl)ccc32)CC1
[7]
  IC50: 50 µM
[8]
  cytotoxicity at 72 h, 100 µM: 24%
DNA gyrase subunit B
  IC50: 76 µM
